The values that follow come from the NIST ThermoML archive (doi:10.1016/j.jct.2008.05.001).

Structures are written as SMILES. Numbers after ± are expanded uncertainties.

The conditions of this data set: 293 K, 101.33 kPa, Pycnometric method.

Broadly, the mass density is the mass of a sample divided by its volume. As to `CCC1COC(=O)O1` (configuration not stated) [1,2-butylene carbonate], the mass density (Liquid) is 1140 ± 10 kg/m3.
With `O=C1OCCO1` [ethylene carbonate], the mass density (Crystal) worked out at 1320 ± 10 kg/m3.
